Experimental data taken from patent publication US20050176758A1, “NOVEL COMPOUNDS AND METHODS FOR SYNTHESIS AND THERAPY” (priority 1995, published 2005).

What was measured:
[1] = Water solubility of salt form; format: physicochemical; details: HCl salt form (dissolved in 3N HCl and lyophilized)
Procedure: Amino ethyl ester 262: Triphenyl phosphine (342 mg, 1.30 mmol) was added in one portion to a solution of 261 ([…], 0.80 mmol) in THF (17 mL) and water (1.6 mL). The reaction was then heated at 50° C. for 10 h, cooled and concentrated in vacuo to give a pale white solid. Purification of the crude solid by flash chromatography on silica gel (50% methanol in ethyl acetate) gave 242 mg (96%) of the amino ethyl ester 262 as a pale solid. The amino ethyl ester is dissolved in 3N HCl and lyophilized to give the corresponding water soluble HCl salt form. ^1H NMR (D2O, 300 MHz): δ 6.84 (s, 1H); 4.36-4.30 (br m, 1H); 4.24 (q, 2H, J=7.2 Hz); 4.05 (dd, 1H, J=9.0, 11.7 Hz); 3.63-3.50 (m, 2H); 2.95 (dd, 1H, J=5.7, 17.1 Hz); 2.57-2.45 (m, 1H); 1.60-1.39 (m, 4H); 1.27 (t, 3H, J=7.2 Hz); 0.89-0.80 (m, 6H).

[2] = target: neuraminidase (Influenza A virus, UniProt P03468)
Sequence of neuraminidase (P03468 whole entry): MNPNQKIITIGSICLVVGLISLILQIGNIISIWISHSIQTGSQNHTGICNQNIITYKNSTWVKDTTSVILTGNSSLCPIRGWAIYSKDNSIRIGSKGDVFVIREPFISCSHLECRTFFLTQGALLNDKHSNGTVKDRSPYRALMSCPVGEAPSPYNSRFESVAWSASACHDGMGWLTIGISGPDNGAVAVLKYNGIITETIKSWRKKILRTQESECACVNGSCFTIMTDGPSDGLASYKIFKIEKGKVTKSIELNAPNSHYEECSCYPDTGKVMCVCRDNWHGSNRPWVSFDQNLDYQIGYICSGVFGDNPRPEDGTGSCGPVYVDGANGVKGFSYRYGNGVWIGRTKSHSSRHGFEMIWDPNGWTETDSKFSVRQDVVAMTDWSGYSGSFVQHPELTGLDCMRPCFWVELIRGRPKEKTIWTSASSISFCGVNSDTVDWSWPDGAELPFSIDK

[3] = literature reports; cited from earlier work

Q: Which Water solubility [1] does the source give for `CCOC(=O)C1=CC(OC(CC)CC)C(NC(C)=O)C(N)C1` (stereo not shown) [compound 262] here?
A: water soluble

Q: With `CC(=O)N[C@@H]1[C@@H](N)CC(C(=O)O)=C[C@H]1OCC(O)CO` (stereo partly shown) [compound 8] as the compound, how does the IC50 [2] read?
A: 1000 to 10000 nM

Q: For `CC(=O)N[C@H]1[C@H]([C@H](O)[C@H](O)CO)OC(C(=O)O)=C[C@@H]1N=C(N)N` [GG167, 4-guanidino-2,4-dideoxy-2,3-dehydro-N-acetylneuraminic acid], which Toxicity [3] is on record?
A: nontoxic

Q: With `CC(=O)NC1C(O)C=C(C(=O)O)CC1NC(=N)N` (stereo not shown) [compound 94] as the compound, how does the IC50 [2] read?
A: < 1000 nM
